Laboratory results as given in the supplement of paper PMC10307832.

Experiments:
Experiment in all cases: relative viability (nuclei count vs DMSO), 5 days (fraction); higher = more cells survive
MK-2206 + Lapatinib = compound: NC1(c2ccc(-c3nc4ccn5c(=O)[nH]nc5c4cc3-c3ccccc3)cc2)CCC1 [MK-2206] + CS(=O)(=O)CCNCc1ccc(-c2ccc3ncnc(Nc4ccc(OCc5cccc(F)c5)c(Cl)c4)c3c2)o1 [Lapatinib] (partner 2 µM)
In short: (§1)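 Each reported value is a median over duplicate plates. It expresses relative viability: treated-well nuclei count divided by vehicle-well nuclei count. Lung cancer cell lines in 1536-well plates were dosed by pin tool a day after seeding, alone with one drug or with a fixed anchor-drug dose plus five library-drug doses (not always all listed) in √10 steps, and nuclei were counted after 5 days.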

MK-2206 + Bortezomib = compound: NC1(c2ccc(-c3nc4ccn5c(=O)[nH]nc5c4cc3-c3ccccc3)cc2)CCC1 [MK-2206] + CC(C)C[C@H](NC(=O)[C@H](Cc1ccccc1)NC(=O)c1cnccn1)B(O)O [Bortezomib] (partner 0.002 µM)
In short: as §1

MK-2206 + Linsitinib = compound: NC1(c2ccc(-c3nc4ccn5c(=O)[nH]nc5c4cc3-c3ccccc3)cc2)CCC1 [MK-2206] + C[C@]1(O)C[C@@H](c2nc(-c3ccc4ccc(-c5ccccc5)nc4c3)c3c(N)nccn32)C1 [Linsitinib] (partner 1 µM)
In short: as §1

Pictilisib + Bortezomib = compound: CS(=O)(=O)N1CCN(Cc2cc3nc(-c4cccc5[nH]ncc45)nc(N4CCOCC4)c3s2)CC1 [Pictilisib] + CC(C)C[C@H](NC(=O)[C@H](Cc1ccccc1)NC(=O)c1cnccn1)B(O)O [Bortezomib] (partner 0.002 µM)
In short: as §1

Pictilisib + AZD7762 = compound: CS(=O)(=O)N1CCN(Cc2cc3nc(-c4cccc5[nH]ncc45)nc(N4CCOCC4)c3s2)CC1 [Pictilisib] + NC(=O)Nc1cc(-c2cccc(F)c2)sc1C(=O)N[C@H]1CCCNC1 [AZD7762] (partner 0.2 µM)
In short: as §1

Row | Cell Line | relative viability (MK-2206 + Lapatinib; first compound 0.01 µM) | relative viability (MK-2206 + Lapatinib; first compound 0.03162 µM) | relative viability (MK-2206 + Lapatinib; first compound 0.3162 µM) | relative viability (MK-2206 + Lapatinib; first compound 1 µM) | relative viability (MK-2206 + Bortezomib; first compound 0.01 µM) | relative viability (MK-2206 + Bortezomib; first compound 0.03162 µM) | relative viability (MK-2206 + Bortezomib; first compound 0.3162 µM) | relative viability (MK-2206 + Bortezomib; first compound 1 µM) | relative viability (MK-2206 + Linsitinib; first compound 0.01 µM) | relative viability (MK-2206 + Linsitinib; first compound 0.03162 µM) | relative viability (MK-2206 + Linsitinib; first compound 0.3162 µM) | relative viability (MK-2206 + Linsitinib; first compound 1 µM) | relative viability (Pictilisib + Bortezomib; first compound 0.02 µM) | relative viability (Pictilisib + Bortezomib; first compound 0.06325 µM) | relative viability (Pictilisib + Bortezomib; first compound 0.6325 µM) | relative viability (Pictilisib + Bortezomib; first compound 2 µM) | relative viability (Pictilisib + AZD7762; first compound 0.02 µM) | relative viability (Pictilisib + AZD7762; first compound 0.06325 µM) | relative viability (Pictilisib + AZD7762; first compound 0.6325 µM) | relative viability (Pictilisib + AZD7762; first compound 2 µM)
1 | EBC-1 | 0.217 | 0.2 | 0.174 | 0.224 | 0.603 | 0.47 | 0.345 | 0.197 | 0.795 | 0.951 | 0.681 | 0.557 | 0.474 | 0.603 | 0.414 | 0.255 | – | – | – | –
2 | COR-L 105 | 0.382 | 0.42 | 0.317 | 0.335 | 0.766 | 0.725 | 0.997 | 0.843 | 0.941 | 0.895 | 0.67 | 0.629 | 1.1 | 0.658 | 0.779 | 0.527 | – | – | – | –
3 | NCI-H1793 | 0.616 | 0.742 | 0.745 | 0.617 | – | – | – | – | 0.81 | 0.886 | 0.641 | 0.675 | – | – | – | – | 0.449 | 0.404 | 0.226 | 0.142
4 | SW 1573 | 0.88 | 1.15 | 0.987 | 0.982 | 0.948 | 1.04 | 0.834 | 0.629 | 0.751 | 0.824 | 0.665 | 0.592 | 0.822 | 1.08 | 0.775 | 0.333 | – | – | – | –
5 | COR-L23 | 0.949 | 1.03 | 0.92 | 1.1 | 0.913 | 1 | 1.18 | 0.989 | 0.909 | 0.996 | 1 | 0.693 | 1.1 | 1.04 | 1.03 | 0.963 | – | – | – | –
6 | A549 | 0.874 | 0.988 | 0.932 | 0.81 | – | – | – | – | 0.657 | 0.651 | 0.574 | 0.512 | – | – | – | – | – | – | – | –
7 | ChaGo-K-1 | – | – | – | – | 1.09 | 0.993 | 0.924 | 0.763 | – | – | – | – | 1.16 | 1.1 | 1.09 | 0.828 | 0.858 | 0.913 | 0.864 | 0.784
8 | NCI-H2023 | 0.827 | 0.818 | 0.708 | 0.492 | 0.958 | 0.838 | 0.778 | 0.612 | 0.642 | 0.586 | 0.438 | 0.312 | 1.17 | 0.764 | 0.511 | 0.223 | – | – | – | –
9 | NCI-H441 | – | – | – | – | 0.841 | 0.575 | 0.223 | 0.233 | 0.674 | 0.579 | 0.435 | 0.415 | 0.702 | 0.373 | 0.41 | 0.338 | 1.18 | 1.11 | 1.11 | 0.7
10 | NCI-H2342 | – | – | – | – | – | – | – | – | – | – | – | – | – | – | – | – | 0.444 | 0.515 | 0.34 | 0.414
11 | SK-MES-1 | 0.461 | 0.452 | 0.429 | 0.38 | – | – | – | – | 1.03 | 1.1 | 1.05 | 1.06 | – | – | – | – | – | – | – | –
12 | NCI-H1648 | – | – | – | – | – | – | – | – | – | – | – | – | – | – | – | – | 0.777 | 0.735 | 0.56 | 0.316
